Measurements taken from US5051431A, “Pyridone nitriles useful in treating cardiovascular disease” (Glaxo Inc., priority 1990, dated 1991).

Experiments:
[1] = target: T1, Beta-1 adrenoceptor (Rattus norvegicus, UniProt P18090); assay: Beta Adrenoceptor Binding Assays: displacement of [I-125]-Pindolol from rat brain cortical membranes; conditions: pH 7.6, 22° C., two hr, read-out: pIC50 (negative log of the IC50) (converted)
T1 construct: rat brain cortices were used as the source of membrane vesicles; from tissue; host or cells: rat brain cortex membranes
T1 sequence (P18090 whole entry): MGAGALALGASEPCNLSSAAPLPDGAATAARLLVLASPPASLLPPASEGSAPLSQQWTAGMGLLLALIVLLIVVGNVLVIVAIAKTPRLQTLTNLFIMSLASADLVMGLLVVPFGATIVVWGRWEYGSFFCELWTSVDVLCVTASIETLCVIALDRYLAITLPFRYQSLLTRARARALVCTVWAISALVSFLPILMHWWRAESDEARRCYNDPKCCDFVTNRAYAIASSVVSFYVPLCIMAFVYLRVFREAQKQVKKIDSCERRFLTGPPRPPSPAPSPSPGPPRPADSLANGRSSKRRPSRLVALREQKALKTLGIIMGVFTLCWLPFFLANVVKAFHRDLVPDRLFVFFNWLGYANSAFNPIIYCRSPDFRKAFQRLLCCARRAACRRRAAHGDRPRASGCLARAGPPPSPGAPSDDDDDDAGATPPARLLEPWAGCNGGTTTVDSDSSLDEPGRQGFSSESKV
Method: Because of its receptor density rat brain cortices were used as the source of membrane vesicles to be used in the receptor binding assays. Freshly excised cortexes were homogenized in 20 volumes (w/v) 50 mM TRIS HCl Buffer (pH 7.5), with a glass/Teflon homogenizer following the procedure previously described by T. J. Rimele in J. Pharmacol Exp. Ther. 239: 1-8, 1986. Beta-1 adrenoceptor binding activity was determined following methods described by M. H. Randall, et al, J. Med. Chem. 20: 1090-1094, 1977, and J. Homberger, et al in Mol. Pharmacol. 20: 453-469, 1981. The incubation mixture consisted of; 26 μl of 50 mM TRIS/HCl, 10 mM MgCl2 pH 7.6 buffer, 25 μl of test drug or 10-6 pindolol to define nonspecific binding, 100 μl of [I-125]-Pindolol (2200Ci/mM) at a final concentration of 10-9, and 100 μl of brain cortical membranes. The mixture was incubated at RT (22 ° C.) for two hr in the dark. The reaction was stopped by filtration of the mixture through buffer soaked glass fiber membranes (GF/B) using an cell harvesting device (Skatron Inc.). The radioactivity in each filter containing the trapped membrane particles was counted with a gamma counter. […] All specific binding values obtained in the presence of test compounds were expressed as the percentage of specific binding displaced by the individual agents. […]

[2] = tested on: rat aorta; assay: Rat Aorta Protocol: relaxation of phenylephrine-contracted rat aorta rings (endothelium removed); format: cell-based
Method: Such vasorelaxation appears to be related to inhibition of the phosphodiesterase (PDE) isozyme related to the cardiac sarcoplasmic reticulum. Thus, relaxation of rat aorta can be used as a screen to eliminate compounds which are not PDE inhibitors prior to testing for actual inotropic activity.
Rings of rat aorta (endothelium removed) were prepared for the measurement of isometric force in isolated tissue organ chambers essentially as previously described by T. J. Rimele et al in the Journal of Pharmacol. Exo. Ther. 245:102-111 (1988). The experimental portion of the protocol began with the addition of methylene blue (1×10^-5 M) and propranolol (1×10^-6 M) to each organ chamber to inhibit basal cGMP accumulation due to soluble guanylate cyclase and beta-adrenoceptors.Phenylephrine (1×10^-7 M) was then added and the rings were allowed to obtain a stable contractile response after which time, the test compound was added in a cumulative fashion. The relaxation induced by each concentration of the test compound was expressed as a percentage of the maximal relaxation produced by nitroprusside (1×10^-4 M). The results were graphically represented as a plot of the percentage relaxation vs. the negative log of the molar concentration of the test compound. […]

[3] = tested on: barbiturate-anesthetized dogs; assay: Anesthetized Dog: beta-blocking effect (inhibition of the dP/dt response to isoproterenol); format: in vivo; conditions: Canis lupus familiaris, iv, infusion, isoproterenol 0.1-0.5 μg/kg i.v.
Method: (§1) Inotropic effects were evaluated in barbiturate-anesthetized dogs by differentiating left intraventricular pressure. This procedure was carried out essentially as described by M. K. Grizzel et al in the FASEB Journal, Vol. 3, page 1039, abstract 4728 (1989). Purpose breed mongrel dogs (14-20 kg) of either sex were anesthetized with a mixture of sodium pentobarbital (15 mg/kg) and sodium barbital (300 mg/kg) i.v., intubated with a cuffed endotracheal tube and ventilated with a respirator (Harvard Apparatus, model 613, South Natick, Mass.) with room air (22 rpm, 10-12 ml/kg/stroke). […] Cardiac output was determined via thermodilution with a Spectramed computer (Starcom., Oxnard, Calif.) and a 5F Swan Ganz catheter which was inserted into the right jugular vein and positioned in the pulmonary artery. […] A lead II electrocardiogram was measured using subcutaneous electrodes. […] Rectal temperature was monitored and maintained at 37°-38° C. with a heating pad (Baxter Health Care model K20, McGaw Park, Ill.). All variables were recorded using a Gould 3800S physiograph.
(§2) Isoproterenol (0.1-0.5 μg/kg) was injected i.v. into the cephalic vein at 10 min intervals except for when the test drug infusion was begun. […] Inhibition of the isoproterenol responses on contractility (dP/dt), heart rate and diastolic blood pressure were determined at each dose of test compound. […]

[4] = tested on: barbiturate-anesthetized dogs; assay: Anesthetized Dog: inotropic effect (increase in baseline left ventricular dP/dt); format: in vivo
Method: as §1, §2

[5] = tested on: guinea pig left atria; assay: Guinea Pig Left Atria Test: direct effect on force of atrial contraction; format: cell-based; conditions: Cavia porcellus, propranolol and phentolamine (1.0 micromolar each) present
Method: This test is carried out as generally described by T. P. Kenakin et al in Journal of Cardiovascular Pharmacology 101, 658-666 (1987) and in the Journal of Pharmacology and Experimental Therapeutics, Vol. 213, 406-413 (1980).
Male Hartley guinea-pigs (300-400 grams) were sacrificed by cervical dislocation or carbon dioxide asphyxiation. The hearts were immediately removed and placed in oxygenated Krebs-Henseleit buffer (composition (millimolar): Na^+ 143, K^+ 5.9, Ca^++ 1.25, Mg^++ 1.2, Cl^- 128, HCO3^- 25, SO4^-- 1.2, H2 PO4^- 1.0, and D-glucose 10). Left atria were dissected away from the remainder of the heart and mounted on holders against platinum punctate electrodes. The mounted atria were placed in tissue baths maintained at 31° C. and oxygenated with 95% 02 -5% CO2 under 1.0 gram resting tension. […] Contractions were detected with a force displacement transducer and recorded on a physiograph. […]
Direct effects of the test compounds on the force of atrial contraction were observed and recorded after addition of the compounds to the tissue bath. […] Responses to the test compounds and forskolin were expressed as a percentage of the maximal response to forskolin. EC50 values for the test compounds were calculated as the concentration of the compound necessary to produce an inotropic response half that of the maximal response produced by the test compound.

[6] = tested on: rat aorta; conditions: literature, R. F. Kauffman et al., J. Pharmacol. Exp. Ther. 242:864-872 (1987); cited from earlier work

IC50 [1]	IC50 ([2]; rat aorta rings, endothelium removed, phenylephrine 1×10^-7 M, methylene blue and propranolol present, read-out: IC50 (concentration of test compound which produced a relaxation equivalent to 50% of the maximal relaxation induced by nitroprusside))	EC50 ([5]; guinea pig left atria, 31° C., read-out: ED50 (concentration producing an inotropic response half that of the maximal response produced by the test compound))	SMILES	Emax at 100 µM ([2]; Rattus norvegicus, at the highest dose tested (100 micromolar), read-out: maximal response (relaxation as percentage of the maximal relaxation produced by nitroprusside))	ED50 [3]	ED50 ([4]; Canis lupus familiaris, iv, infusion, compared to baseline prior to drug infusion, read-out: inotropic ED50 (50% increase in dP/dt))	inotropic effects at higher doses, sensitivity to atenolol ([4]; higher doses, atenolol)	Emax at 100 µM ([5]; at 100 micromolar, read-out: maximal response (percentage of the maximal response to forskolin))	relaxation of rat aorta [6]
0.02 µM	23 µM	13 µM	Cc1[nH]c(=O)c(C#N)cc1-c1ccc(OCCCC(=O)NCCNCC(O)COc2ccccc2)cc1 (stereo not shown) [Example 2, 5-{4-[N-[2-(3-Phenoxy-2-hydroxypropylamino)ethyl]carbamoylpropyloxy]phenyl}-6-methyl-2-oxo-1,2-dihydro-3-pyridinecarbonitrile]	97%	0.055 µmol/kg	0.04 µmol/kg	not blocked by atenolol	36%	–
–	–	–	CSc1ccc(C(=O)c2[nH]c(=O)[nH]c2C)cc1 [enoximone]	–	–	–	–	–	marked relaxation
–	–	–	Cc1[nH]c(=O)c(C#N)cc1-c1ccncc1 [milrinone]	–	–	–	–	–	marked relaxation
